Data reported in ChEMBL document CHEMBL5042474, “Structure-Guided Discovery of Potent and Selective DYRK1A Inhibitors” (J Med Chem, 2021).

Legend:
[1] = molecular target: T1, Dual specificity tyrosine-phosphorylation-regulated kinase 2 (Homo sapiens, UniProt Q92630); assay: Inhibition of DYRK2 (unknown origin) using Ulight-MBP as substrate and ATP as co-substrate incubated for 40 mins and measured after 1 hr by TR-FRET assay
T1 sequence (Q92630 whole entry): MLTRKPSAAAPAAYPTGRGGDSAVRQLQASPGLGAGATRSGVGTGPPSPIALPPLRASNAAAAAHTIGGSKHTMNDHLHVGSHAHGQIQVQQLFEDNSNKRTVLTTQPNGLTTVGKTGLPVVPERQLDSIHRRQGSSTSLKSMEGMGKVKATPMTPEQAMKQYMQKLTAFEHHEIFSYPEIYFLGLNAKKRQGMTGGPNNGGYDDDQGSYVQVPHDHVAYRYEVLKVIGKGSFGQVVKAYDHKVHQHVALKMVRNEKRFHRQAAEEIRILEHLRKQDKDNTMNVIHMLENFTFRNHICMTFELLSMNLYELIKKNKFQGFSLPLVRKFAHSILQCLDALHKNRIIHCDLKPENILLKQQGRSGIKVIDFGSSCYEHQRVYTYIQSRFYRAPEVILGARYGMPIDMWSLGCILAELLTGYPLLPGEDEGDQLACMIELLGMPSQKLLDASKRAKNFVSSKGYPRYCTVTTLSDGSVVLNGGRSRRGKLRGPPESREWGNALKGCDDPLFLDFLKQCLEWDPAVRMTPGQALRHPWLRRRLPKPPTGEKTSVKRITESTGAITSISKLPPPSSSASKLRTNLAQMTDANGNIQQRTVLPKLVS

[2] = tested on: RS4-11; assay: Antitumor activity against human RS4-11 cells xenografted in BALB/c nu/nu mouse reduction in DYRK1A autophosphorylation of S520 residue at 6.25 mg/kg, po measured after 6 hrs by western blotting analysis relative to control; type: functional; parameters: scale not given: the % may be the effect or the level left
[3] = tested on: RS4-11; assay: Antitumor activity against human RS4-11 cells xenografted in BALB/c nu/nu mouse assessed as reduction in DYRK1A autophosphorylation of S520 residue at 6.25 mg/kg, po measured after 2 hrs by western blotting analysis relative to control; type: functional; parameters: scale not given: the % may be the effect or the level left
[4] = molecular target: T2, Dual specificity tyrosine-phosphorylation-regulated kinase 1A (Homo sapiens, UniProt Q13627); assay: Inhibition of DYRK1A (unknown origin) using Ulight-MBP as substrate and ATP as co-substrate incubated for 40 mins and measured after 1 hr by TR-FRET assay
[5] = molecular target: Cyclin-dependent kinase 9 (Homo sapiens, UniProt P50750); assay: Inhibition of CDK9 (unknown origin) using Ulight-MBP as substrate and ATP as co-substrate incubated for 40 mins and measured after 1 hr by TR-FRET assay
[6] = molecular target: T2, Dual specificity tyrosine-phosphorylation-regulated kinase 1A; assay: Inhibition of wild type full length DYRK1A (unknown origin) in human U2OS cells assessed as reduction in pSER520 autophosphorylation incubated for 5 hrs by western blot analysis; type: cell-based

Sequence of Cyclin-dependent kinase 9 (P50750 whole entry): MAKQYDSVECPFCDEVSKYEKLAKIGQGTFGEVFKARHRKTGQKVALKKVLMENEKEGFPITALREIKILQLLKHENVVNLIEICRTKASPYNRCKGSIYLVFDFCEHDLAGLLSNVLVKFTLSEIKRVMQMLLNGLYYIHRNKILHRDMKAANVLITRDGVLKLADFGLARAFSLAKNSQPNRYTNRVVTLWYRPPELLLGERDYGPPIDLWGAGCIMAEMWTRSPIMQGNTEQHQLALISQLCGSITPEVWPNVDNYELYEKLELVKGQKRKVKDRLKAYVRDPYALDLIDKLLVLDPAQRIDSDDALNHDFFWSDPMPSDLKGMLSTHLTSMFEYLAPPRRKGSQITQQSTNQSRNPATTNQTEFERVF

| SMILES | IC50 [1] [µM] | IC50 [4] [µM] | other results |
| --- | --- | --- | --- |
| Cc1nc2ccc(-c3cc(N)nc(N)c3)nc2n1CCOc1ccccc1 | 0.009 |  | Activity [2]: 25%; Activity [3]: 59% |
| Nc1cc(-c2ccc3ncoc3c2)cc(N)n1 |  | 0.01 |  |
| Nc1cc(-c2ccc3sccc3c2)cc(N)n1 |  | 0.137 |  |
| Cc1nc2ccc(-c3cc(N)nc(N)c3)nc2n1C(C)(C)C | 0.006 |  |  |
| Nc1cc(-c2ccc3ncsc3c2)cc(N)n1 |  | 0.001 |  |
| COCCCn1c(C)nc2ccc(-c3cc(N)nc(N)c3)nc21 | 0.005 |  |  |
| Cc1nc2ccc(-c3cc(N)nc(N)c3)nc2n1C1CCCC1 | 0.001 |  |  |
| Cc1nc2ccc(-c3cc(N)nc(N)c3)nc2n1C[C@H](C)Oc1ccccc1 | 0.022 | 0.008 | IC50 [5]: > 3 µM; IC50 ([6]; read-out: IC50): 0.073 µM |
| Nc1cc(-c2ccn3nccc3n2)cc(N)n1 |  | 0.002 |  |
| Nc1cc(-c2ccc3c(c2)CCO3)cc(N)n1 |  | 0.016 |  |
| c1cc(-c2ccc3occc3c2)ccn1 |  | 0.32 |  |
| Nc1cc(-c2ccc3occc3c2)nc(N)n1 |  | 0.036 |  |
| Nc1cc(-c2ccc3c(c2)CCO3)nc(N)n1 |  | 0.022 |  |
| COc1ccc(-c2ccnc(C)c2)cc1 |  | 0.67 |  |
| COc1ccc(-c2ccnc(N)c2)cc1 |  | 0.126 |  |
| Cc1nc2ccc(-c3cc(N)nc(N)c3)nc2n1C[C@@H](C)Oc1ccccc1 | 0.046 |  | IC50 [5]: > 3 µM; IC50 ([6]; read-out: IC50): 0.111 µM |
| Nc1cc(-c2ccc3nccn3c2)cc(N)n1 |  | 0.017 |  |
| COc1cc(-c2ccnc(N)c2)ccc1Cl |  | 0.218 |  |
| Nc1cc(-c2ccc3ncnn3c2)cc(N)n1 |  | 0.015 |  |
| Cn1cnc2ccc(-c3cc(N)nc(N)c3)nc21 |  | 0.013 |  |
| Cc1nc2ccc(-c3cc(N)nc(N)c3)nc2n1C[C@H](C)Oc1ccccn1 | 0.117 |  | IC50 [5]: > 3 µM; IC50 ([6]; read-out: IC50): > 0.3 µM |
| Cc1nc2ccc(-c3cc(N)nc(N)c3)nc2n1CC(F)(F)F | 0.006 |  | Activity [2]: 95%; Activity [3]: 93% |
| Cc1nc2ccc(-c3cc(N)nc(N)c3)nc2n1CCOc1cccc(Cl)n1 | 0.033 |  | IC50 [5]: 0.222 µM |
| Cc1cc(-c2ccc(Cl)cc2)ccn1 |  | > 10 |  |
| CNCC(=O)Nc1cc(-c2ccc3occc3c2)cc(N)n1 |  | 0.168 |  |
| Cc1nc2ccc(-c3cc(N)nc(N)c3)nc2n1Cc1ccc(F)cc1 | 0.134 |  | IC50 ([6]; read-out: IC50): 3 µM |

| SMILES | IC50 [1] [µM] | IC50 [4] [µM] | other results |
| --- | --- | --- | --- |
| Cc1nc2ccc(-c3cc(N)nc(N)c3)nc2n1CCc1ccco1 | 0.006 |  |  |
| Nc1cc(-c2ccc3ncccc3c2)cc(N)n1 |  | 0.01 |  |
| Nc1cc(-c2ccc3ocnc3c2)cc(N)n1 |  | 0.022 |  |
| Cc1cc(-c2ccc3occc3c2)cc(N)n1 |  | 0.077 |  |
| Nc1cc(-c2ccc3occc3c2)ccn1 |  | 0.019 |  |
| Nc1cc(-c2ccc3occc3c2)cc(NCCc2ccsc2)n1 |  | 0.189 |  |
| COCCCNc1cc(-c2ccc3occc3c2)cc(N)n1 |  | 0.096 |  |
| Cc1nc2ccc(-c3cc(N)nc(N)c3)nc2n1C[C@@H](C)Oc1cccc(Br)n1 | 0.195 | 0.005 | IC50 [5]: 0.467 µM; IC50 ([6]; read-out: IC50): 0.044 µM |
| COc1ccc(-c2cc(N)nc(N)n2)cc1 |  | 0.158 |  |
| Cn1cnc2cc(-c3cc(N)nc(N)c3)ccc21 |  | 0.014 |  |
| CNc1cc(-c2ccc3occc3c2)cc(N)n1 |  | 0.017 |  |
| Nc1cc(-c2ccc3c(c2)OCCO3)cc(N)n1 |  | 0.011 |  |
| Cc1nc2ccc(-c3cc(N)nc(N)c3)nc2n1CC(F)F | 0.004 |  |  |
| Nc1cc(-c2ccc3occc(=O)c3c2)cc(N)n1 |  | 0.042 |  |
| Cc1cc2cc(-c3cc(N)nc(N)c3)ccc2o1 |  | 0.034 | IC50 [5]: > 10 µM; IC50 ([6]; read-out: IC50): 1.8 µM |
| Cc1nc2ccc(-c3cc(N)nc(N)c3)nc2n1CCC1CCCCC1 | 0.009 |  |  |
| Nc1cc(-c2ccc3occc3n2)cc(N)n1 |  | 0.01 |  |
| Cc1oc2ccc(-c3cc(N)nc(N)c3)cc2c1C | 0.021 | 0.001 | IC50 [5]: 8.84 µM; IC50 ([6]; read-out: IC50): 1.65 µM |
| Cc1nc2ccc(-c3cc(N)nc(N)c3)nc2n1CCCC(F)(F)F | 0.01 |  |  |
| Nc1cc(-c2ccc3oc(Cl)cc3c2)cc(N)n1 |  | 0.076 | IC50 [5]: 5.43 µM; IC50 ([6]; u2os): Not Active |
| Cc1onc2ccc(-c3cc(N)nc(N)c3)cc12 |  | 0.019 |  |
| Nc1cc(-c2ccc3occc3c2)cc(N)n1 |  | 0.014 | IC50 [5]: 0.041 µM; IC50 ([6]; read-out: IC50): 0.5 µM |
| Cc1nc2ccc(-c3cc(N)nc(N)c3)nc2n1C[C@@H](C)Oc1ccccn1 | 0.116 | 0.007 | IC50 [5]: > 3 µM |
| Cc1nc2ccc(-c3cc(N)nc(N)c3)nc2n1CCOc1ccccn1 | 0.034 |  |  |
| c1cc(-c2ccc3occc3c2)cc(N2CCNCC2)n1 |  | 3.56 |  |
| Cc1nc2ccc(-c3cc(N)nc(N)c3)nc2n1CCOc1cccc(Br)n1 | 0.052 |  | IC50 [5]: 0.289 µM |
